Measured values taken from ChEMBL document CHEMBL4602605, “Fluoroquinolones structural and medicinal developments (2013-2018): Where are we now?” (Bioorg Med Chem, 2019).
≈ marks a conversion by molar mass, not a printed value.

Experiments:
Format in all cases: functional
Pseudomonas aeruginosa [1] = assay: Antimicrobial activity against Pseudomonas aeruginosa ATCC 19429 incubated for 18 hrs by CLSI-based microbroth dilution method; conditions: ATCC 19429, 18 h
Staphylococcus aureus [2] = assay: Antimicrobial activity against Staphylococcus aureus ATCC 25923 incubated for 18 hrs by CLSI-based microbroth dilution method; conditions: ATCC 25923, 18 h
Escherichia coli [3] = assay: Antibacterial activity against Escherichia coli incubated for 18 hrs by CLSI-based broth microdilution method
Enterococcus faecium = assay: Antimicrobial activity against Enterococcus faecium ATCC 700221 incubated for 18 to 24 hrs by two-fold serial dilution method
[4] = test system: Staphylococcus epidermidis; assay: Antimicrobial activity against methicillin-susceptible Staphylococcus epidermidis ATCC 12228 incubated for 18 to 24 hrs by two-fold serial dilution method
Staphylococcus aureus [5] = assay: Antimicrobial activity against methicillin-resistant Staphylococcus aureus ATCC 33591 incubated for 18 to 24 hrs by two-fold serial dilution method
[6] = test system: Mycobacterium tuberculosis; assay: Antimicrobial activity against Mycobacterium tuberculosis H37Rv ATCC 27294 incubated for 7 days by microplate Alamar blue assay; conditions: H37Rv ATCC 27294, 168 h
Staphylococcus aureus [7] = assay: Antimicrobial activity against methicillin-susceptible Staphylococcus aureus ATCC 29213 incubated for 18 to 24 hrs by two-fold serial dilution method
Escherichia coli [8] = assay: Antimicrobial activity against Escherichia coli ATCC 25922 incubated for 24 hrs; conditions: ATCC 25922, 24 h
Streptococcus pneumoniae = assay: Antibacterial activity against Streptococcus pneumoniae ATCC 49619 incubated for 24 hrs; conditions: ATCC 49619, 24 h
Pseudomonas aeruginosa [9] = assay: Antimicrobial activity against Pseudomonas aeruginosa ATCC 27853 incubated for 24 hrs; conditions: ATCC 27853, 24 h
Staphylococcus aureus [10] = assay: Antimicrobial activity against Staphylococcus aureus ATCC 29213 incubated for 24 hrs; conditions: ATCC 29213, 24 h

Row | Compound | MIC (Pseudomonas aeruginosa [1]) | MIC (Staphylococcus aureus [2]) | MIC (Escherichia coli [3]) | MIC (Escherichia coli [8]) | MIC (Streptococcus pneumoniae) | MIC (Pseudomonas aeruginosa [9]) | MIC (Staphylococcus aureus [10]) | other results
1 | O=C(O)c1cn(C2CC2)c2cc(N3CCCC3)c(F)cc2c1=O | > 128 µg/mL | 0.0625 µg/mL (≈ 0.198 µM) | – | – | – | – | – | –
2 | CCn1cc(C(=O)O)c(=O)c2cc(F)c(N(C)C)cc21 | 64 µg/mL (≈ 230 µM) | 0.5 µg/mL (≈ 1.8 µM) | 2 µg/mL (≈ 7.19 µM) | – | – | – | – | –
3 | O=C(O)c1cn(C2CC2)c2cc(N3CCCCC3)c(F)cc2c1=O | 32 µg/mL (≈ 96.9 µM) | 0.25 µg/mL (≈ 0.757 µM) | – | – | – | – | – | –
4 | O=C(O)c1cn(C2CC2)c2cc(N3CCOCC3)c(F)cc2c1=O | 8 µg/mL (≈ 24.1 µM) | 125 µg/mL (≈ 376 µM) | – | – | – | – | – | –
5 | CN1CCN(c2cc3c(cc2F)c(=O)c(C(=O)O)cn3C2CC2)CC1 | 1 µg/mL (≈ 2.9 µM) | 0.25 µg/mL (≈ 0.724 µM) | 0.0078 µg/mL (≈ 0.0226 µM) | – | – | – | – | –
6 | COc1ccc(C(=O)N/N=C(\C)CN2CCN(c3c(F)cc4c(=O)c(C(=O)O)cn(C5CC5)c4c3OC)CC2)cc1 | – | – | – | – | – | – | – | MIC (Enterococcus faecium): 64 µg/mL (≈ 113 µM); MIC [4]: 0.125 µg/mL (≈ 0.221 µM); MIC (Staphylococcus aureus [5]): 0.25 µg/mL (≈ 0.442 µM); MIC [6]: 0.214 µM (≈ 0.121 µg/mL); MIC (Staphylococcus aureus [7]): 0.125 µg/mL (≈ 0.221 µM)
7 | CCn1cc(C(=O)O)c(=O)c2cc(F)c(N3CCN(C/C(=N/N)c4ccc([N+](=O)[O-])cc4)CC3)cc21 | – | – | – | 12.5 µg/mL (≈ 25.2 µM) | 25 µg/mL (≈ 50.4 µM) | 50 µg/mL (≈ 101 µM) | 12.5 µg/mL (≈ 25.2 µM) | –
8 | COc1c(N2CCN(C/C(C)=N/NC(=O)c3ccc(Cl)cc3)CC2)c(F)cc2c(=O)c(C(=O)O)cn(C3CC3)c12 | – | – | – | – | – | – | – | MIC (Enterococcus faecium): 32 µg/mL (≈ 56.1 µM); MIC [4]: 0.125 µg/mL (≈ 0.219 µM); MIC (Staphylococcus aureus [5]): 0.125 µg/mL (≈ 0.219 µM); MIC [6]: 0.272 µM (≈ 0.155 µg/mL); MIC (Staphylococcus aureus [7]): 0.125 µg/mL (≈ 0.219 µM)
9 | CCn1cc(C(=O)O)c(=O)c2cc(F)c(N3CCN(C/C(=N/OC)c4ccccc4)CC3)cc21 | – | – | – | 50 µg/mL (≈ 107 µM) | > 100 µg/mL | > 100 µg/mL | 50 µg/mL (≈ 107 µM) | –
10 | CCn1cc(C(=O)O)c(=O)c2cc(F)c(N3CCN(C/C(=N\Nc4ccccc4)c4ccccc4)CC3)cc21 | – | – | – | 25 µg/mL (≈ 47.4 µM) | 100 µg/mL (≈ 190 µM) | 100 µg/mL (≈ 190 µM) | 50 µg/mL (≈ 94.8 µM) | –
11 | CCn1cc(C(=O)O)c(=O)c2cc(F)c(N3CCN(C/C(=N\N)c4ccccc4)CC3)cc21 | – | – | – | 12.5 µg/mL (≈ 27.7 µM) | 50 µg/mL (≈ 111 µM) | 100 µg/mL (≈ 221 µM) | 25 µg/mL (≈ 55.4 µM) | –
12 | Cl.O=C(O)c1cn(Cc2ccccc2)c2cc(N3CCNCC3)c(F)cc2c1=O | 2 µg/mL | 2 µg/mL | 1 µg/mL | – | – | – | – | –
13 | CCn1cc(C(=O)O)c(=O)c2cc(F)c(N3CCNCC3)cc21.Cl | 1 µg/mL | 2 µg/mL | – | – | – | – | – | –
14 | CCCCN(CCCC)c1cc2c(cc1F)c(=O)c(C(=O)O)cn2CC | > 128 µg/mL | 8 µg/mL (≈ 22.1 µM) | > 128 µg/mL | – | – | – | – | –
15 | CCCCN(CCCC)c1cc2c(cc1F)c(=O)c(C(=O)O)cn2C1CC1 | > 128 µg/mL | 8 µg/mL (≈ 21.4 µM) | > 128 µg/mL | – | – | – | – | –
16 | CCn1cc(C(=O)O)c(=O)c2cc(F)c(N3CCN(C/C(=N/OC)c4ccc(C)cc4)CC3)cc21 | – | – | – | 25 µg/mL (≈ 52 µM) | 100 µg/mL (≈ 208 µM) | > 100 µg/mL | 25 µg/mL (≈ 52 µM) | –
17 | CC(C)n1cc(C(=O)O)c(=O)c2cc(F)c(N3CCNCC3)cc21.Cl | 4 µg/mL | 8 µg/mL | 0.5 µg/mL | – | – | – | – | –
18 | CCN(CC)c1cc2c(cc1F)c(=O)c(C(=O)O)cn2CC | > 128 µg/mL | 4 µg/mL (≈ 13.1 µM) | 8 µg/mL (≈ 26.1 µM) | – | – | – | – | –
19 | COc1c(N2CCN(C/C(C)=N/NC(=O)c3ccccc3)CC2)c(F)cc2c(=O)c(C(=O)O)cn(C3CC3)c12 | – | – | – | – | – | – | – | MIC (Enterococcus faecium): > 128 µg/mL; MIC [4]: 0.125 µg/mL (≈ 0.233 µM); MIC (Staphylococcus aureus [5]): 0.125 µg/mL (≈ 0.233 µM); MIC [6]: 0.226 µM (≈ 0.121 µg/mL); MIC (Staphylococcus aureus [7]): 0.125 µg/mL (≈ 0.233 µM)
20 | CCn1cc(C(=O)O)c(=O)c2cc(F)c(N3CCN(C/C(=N/Nc4ccccc4)c4ccc(OC)cc4)CC3)cc21 | – | – | – | 25 µg/mL (≈ 44.8 µM) | 100 µg/mL (≈ 179 µM) | 100 µg/mL (≈ 179 µM) | 25 µg/mL (≈ 44.8 µM) | –
21 | CCn1cc(C(=O)O)c(=O)c2cc(F)c(N3CCN(C/C(=N/O)c4ccc([N+](=O)[O-])cc4)CC3)cc21 | – | – | – | 12.5 µg/mL (≈ 25.1 µM) | 50 µg/mL (≈ 101 µM) | 100 µg/mL (≈ 201 µM) | 6.25 µg/mL (≈ 12.6 µM) | –
22 | CN(C)c1cc2c(cc1F)c(=O)c(C(=O)O)cn2C1CC1 | 8 µg/mL (≈ 27.6 µM) | 125 µg/mL (≈ 431 µM) | – | – | – | – | – | –
23 | CCCCCCn1cc(C(=O)O)c(=O)c2cc(F)c(N3CCNCC3)cc21.Cl | > 128 µg/mL | > 128 µg/mL | 64 µg/mL | – | – | – | – | –
24 | Cc1ccc(/C(CN2CCN(c3cc4c(cc3F)c(=O)c(C(=O)O)cn4C3CC3)CC2)=N\NC(N)=O)cc1 | – | – | – | 12.5 µg/mL (≈ 24 µM) | 25 µg/mL (≈ 48 µM) | 50 µg/mL (≈ 96 µM) | 6.25 µg/mL (≈ 12 µM) | –
25 | Cl.NCCNc1cc2c(cc1F)c(=O)c(C(=O)O)cn2C1CC1 | 4 µg/mL | 16 µg/mL | 1 µg/mL | – | – | – | – | –
